Values joined by “and” are separate entries in the source; they are usually repeats but may differ in a detail not shown here. Identical values can stand only once. Like-named read-outs stand apart in the source and are kept apart here.
Columns and labels:
Type in all cases: cell-based, human
[1] = tested on: Kasumi-1 cells; experiment: Viability (MTS) of Kasumi-1 AML cells; conditions: for IC50: Homo sapiens, Kasumi 1, 72 h
[2] = tested on: BCL-xL/PROTAC/VCB ternary complex (HiBit-BCL-xL, HaloTag-VHL); experiment: NanoBRET intracellular ternary complex formation in 293T cells, BCL-xL; conditions: 293T cells, triplicate wells; for NanoBRET ratio (610/450 x1000, background-subtracted), Bcl-xl, Ave: Ave of Read1 and Read2
Description: (§1) Plasmids HaloTag-VHL (Cat. No. CS1679C155) and CMV HiBit (Cat. No. CS1956B03) were purchased from Promega. HiBit-BCL-xL and HiBit-BCL-2 were constructed previously. The two mutants (HiBit-BCL-xL-K157-only and HiBit-BCL-xL-K-ko) were constructed through Gibson assembly method. The primer pair (5′-[…]-3′ and 5′-[…]c[…]-3′) and the template Flag-BCL-xL-K157-only or Flag-BCL-xL-K-ko (pDL2129)[2] were used to clone the BCL-xL-K157-only-containing and BCL-xL-K-ko-containing fragments, respectively. The primer pair (5′-[…]g[…]-3′ and 5′-[…]-3′) and pBit3.1-N (Cat. No. N2361, Promega) were used to clone the vector-containing fragment. The PCR fragments were assembled using NEBuilder® HiFi DNA Assembly Master Mix (Cat. No. E2621, NEB, Ipswich, MA, USA). DNA sequences in all these plasmids were authenticated by automatic sequencing. […] After 24 h, 2 × 10^4 transfected cells were seeded into white 96-well tissue culture plates in Gibco™ Opti-MEM™ I Reduced Serum Medium, No Phenol Red (Cat. No. 11-058-021, Fisher) containing 4% FBS with or without HaloTag NanoBRET 618 Ligand (Cat. No. PRN1662, Promega) and incubated overnight at 37 °C, 5% CO2. The following day, serial diluted compounds were added into the medium and plates were incubated at 37 °C, 5% CO2, for 6 h. After treatment, NanoBRET Nano-Glo Substrate (cat. no. N1662, Promega) was added into the medium, and the contents were mixed by shaking the plate for 30 s before measuring donor and acceptor signals on Biotek plate reader. Dual-filtered luminescence was collected with a 450/50 nm bandpass filter (donor, NanoBiT-BCL-XL protein or NanoBiT-BCL-2 protein) and a 610-nm longpass filter (acceptor, HaloTag NanoBRET ligand) using an integration time of 0.5 s. mBRET ratios were calculated following the NanoBRET™ Nano-Glo® Detection System (Cat. No. N1662, Promega).

[3] = tested on: BCL-2/PROTAC/VCB ternary complex (HiBit-BCL-2, HaloTag-VHL); experiment: NanoBRET intracellular ternary complex formation in 293T cells, BCL-2; conditions: 293T cells, triplicate wells; for NanoBRET ratio (610/450 x1000, background-subtracted), Bcl-2, Ave: Ave of Read1 and Read2
Description: as §1

SMILES: CC1(C)CCC(CN2CCN(c3ccc(C(=O)NS(=O)(=O)c4ccc(NCC5CCOCC5)c([N+](=O)[O-])c4)c(Oc4cnc5[nH]ccc5c4)c3)CC2)=C(c2ccc(Cl)cc2)C1 [ABT199, venetoclax]
- Luminescence (raw plate reading) ([1]; 3.90625 nM (plate column 2), Fig. 7a): 505600 and 468580 and 525678 and 543318
- Luminescence (raw plate reading) ([1]; 7.8125 nM (plate column 3), Fig. 7a): 504424 and 455660 and 487360 and 542979
- Luminescence (raw plate reading) ([1]; 15.625 nM (plate column 4), Fig. 7a): 489014 and 455068 and 501527 and 480804
- Luminescence (raw plate reading) ([1]; 31.25 nM (plate column 5), Fig. 7a): 466073 and 441818 and 471956 and 491899
- Luminescence (raw plate reading) ([1]; 62.5 nM (plate column 6), Fig. 7a): 440585 and 409812 and 377802 and 367500
- Luminescence (raw plate reading) ([1]; 125 nM (plate column 7), Fig. 7a): 397154 and 357971 and 355935 and 386744
- Luminescence (raw plate reading) ([1]; 250 nM (plate column 8), Fig. 7a): 359551 and 316363 and 300748 and 321366
- Luminescence (raw plate reading) ([1]; 500 nM (plate column 9), Fig. 7a): 315682 and 289875 and 281016 and 292587
- Luminescence (raw plate reading) ([1]; 1000 nM (plate column 10), Fig. 7a): 293868 and 256148 and 279970 and 273769
- Luminescence (raw plate reading) ([1]; 2000 nM = 2U (plate column 11), Fig. 7a): 258049 and 207791 and 210071 and 198590
- Luminescence (raw plate reading) ([1]; 4000 nM = 4U (plate column 12), Fig. 7a): 180705 and 155931 and 141587 and 133830
- Luminescence normalised to mean of the 0 concentration wells (= 100), viability ([1]; 3.90625 (nM), Fig. 7a): 73.8707 and 68.4619 and 76.8042 and 79.3815
- Luminescence normalised to mean of the 0 concentration wells (= 100), viability ([1]; 7.8125 (nM), Fig. 7a): 73.6989 and 66.5743 and 71.2058 and 79.332
- Luminescence normalised to mean of the 0 concentration wells (= 100), viability ([1]; 15.625 (nM), Fig. 7a): 71.4474 and 66.4878 and 73.2757 and 70.2479
- Luminescence normalised to mean of the 0 concentration wells (= 100), viability ([1]; 31.25 (nM), Fig. 7a): 68.0956 and 64.5519 and 68.9552 and 71.869
- Luminescence normalised to mean of the 0 concentration wells (= 100), viability ([1]; 62.5 (nM), Fig. 7a): 64.3717 and 59.8756 and 55.1988 and 53.6936
- Luminescence normalised to mean of the 0 concentration wells (= 100), viability ([1]; 125 (nM), Fig. 7a): 58.0262 and 52.3014 and 52.0039 and 56.5053
- Luminescence normalised to mean of the 0 concentration wells (= 100), viability ([1]; 250 (nM), Fig. 7a): 52.5322 and 46.2223 and 43.9408 and 46.9532
- Luminescence normalised to mean of the 0 concentration wells (= 100), viability ([1]; 500 (nM), Fig. 7a): 46.1228 and 42.3522 and 41.0579 and 42.7485
- Luminescence normalised to mean of the 0 concentration wells (= 100), viability ([1]; 1000 (nM), Fig. 7a): 42.9356 and 37.4245 and 40.905 and 39.9991
- Luminescence normalised to mean of the 0 concentration wells (= 100), viability ([1]; 2000 (nM, 2U), Fig. 7a): 37.7023 and 30.3593 and 30.6924 and 29.015
- Luminescence normalised to mean of the 0 concentration wells (= 100), viability ([1]; 4000 (nM, 4U), Fig. 7a): 26.4019 and 22.7823 and 20.6866 and 19.5532
- IC50 ([1]; Fig. 7a, read-out: IC50, viability of Kasumi-1 AML cells): 0.867 µM
- IC50 ([1]; Fig. 7c, read-out: IC50, viability of Kasumi-1 cells): 1.13 µM

SMILES: Cc1ncsc1-c1ccc(C(C)NC(=O)C2CC(O)CN2C(=O)C(NC(=O)CCCCCC(=O)N2CCN(CC3(C)CCC(c4ccc(Cl)cc4)=C(CN4CCN(c5ccc(C(=O)NS(=O)(=O)c6ccc(NC(CCN7CCOCC7)CSc7ccccc7)c(S(=O)(=O)C(F)(F)F)c6)cc5)CC4)C3)CC2)C(C)(C)C)cc1 (mixture of isomers) [319-C7]
- NanoBRET ratio (610/450 x1000, background-subtracted), Bcl-xl, Ave ([2]; 0.333 uM): 6.383 and 6.41 and 6.027
- NanoBRET ratio (610/450 x1000, background-subtracted), Bcl-xl, Read1 ([2]; 0.333 uM): 6.118 and 6.864 and 6.2545
- NanoBRET ratio (610/450 x1000, background-subtracted), Bcl-xl, Read2 ([2]; 0.333 uM): 6.648 and 5.956 and 5.8
- NanoBRET ratio (610/450 x1000, background-subtracted), Bcl-xl, Ave ([2]; 1 uM): 8.353 and 6.411 and 6.637
- NanoBRET ratio (610/450 x1000, background-subtracted), Bcl-xl, Read1 ([2]; 1 uM): 7.957 and 6.709 and 6.774
- NanoBRET ratio (610/450 x1000, background-subtracted), Bcl-xl, Read2 ([2]; 1 uM): 8.749 and 6.113 and 6.499
- NanoBRET ratio (610/450 x1000, background-subtracted), Bcl-xl, Ave ([2]; 3 uM): 5.568 and 7.612 and 6.364
- NanoBRET ratio (610/450 x1000, background-subtracted), Bcl-xl, Read1 ([2]; 3 uM): 5.755 and 8.211 and 6.36
- NanoBRET ratio (610/450 x1000, background-subtracted), Bcl-xl, Read2 ([2]; 3 uM): 5.382 and 7.013 and 6.368
- NanoBRET ratio (610/450 x1000, background-subtracted), Bcl-2, Ave ([3]; 0.333 uM): 6.052 and 6.92 and 7.6505
- NanoBRET ratio (610/450 x1000, background-subtracted), Bcl-2, Read1 ([3]; 0.333 uM): 5.966 and 6.845 and 7.7752
- NanoBRET ratio (610/450 x1000, background-subtracted), Bcl-2, Read2 ([3]; 0.333 uM): 6.137 and 6.996 and 7.5258
- NanoBRET ratio (610/450 x1000, background-subtracted), Bcl-2, Ave ([3]; 1 uM): 8.414 and 7.671 and 8.038
- NanoBRET ratio (610/450 x1000, background-subtracted), Bcl-2, Read1 ([3]; 1 uM): 8.989 and 7.62 and 8.138
- NanoBRET ratio (610/450 x1000, background-subtracted), Bcl-2, Read2 ([3]; 1 uM): 7.839 and 7.721 and 7.939
- NanoBRET ratio (610/450 x1000, background-subtracted), Bcl-2, Ave ([3]; 3 uM): 7.385 and 7.884 and 8.749
- NanoBRET ratio (610/450 x1000, background-subtracted), Bcl-2, Read1 ([3]; 3 uM): 7.497 and 8.645 and 8.883
- NanoBRET ratio (610/450 x1000, background-subtracted), Bcl-2, Read2 ([3]; 3 uM): 7.2733 and 7.122 and 8.615

Source: paper PMC8617031, “Development of a BCL-xL and BCL-2 dual degrader with improved anti-leukemic activity,” (Nature Communications, 2021)
